Test results taken from ChEMBL document CHEMBL4138231 (Eur J Med Chem, 2018).
The source made the active and inactive calls. The rule behind the calls is not given here.

Tests used:
NCI-H1975 = assay: Antiproliferative activity against human NCI-H1975 cells after 72 hrs by CCK8 assay; assay type: functional
A549 = assay: Antiproliferative activity against human A549 cells after 72 hrs by CCK8 assay; assay type: functional
HeLa = assay: Antiproliferative activity against human HeLa cells after 72 hrs by CCK8 assay; assay type: functional
K562 = assay: Antiproliferative activity against human K562 cells after 72 hrs by CCK8 assay; assay type: functional
Huh-7 = assay: Antiproliferative activity against human HuH7 cells after 72 hrs by CCK8 assay; assay type: functional
MCF7 = assay: Antiproliferative activity against human MCF7 cells after 72 hrs by CCK8 assay; assay type: functional
[1] = target: Serine/threonine-protein kinase PLK2 (Homo sapiens, UniProt Q9NYY3); assay: Inhibition human recombinant full length GST-tagged Plk2 expressed in baculovirus expression system after 1 hr by FRET-based Z'-Lyte assay
Chain of Serine/threonine-protein kinase PLK2 (Q9NYY3 whole entry, the tested form may be a part): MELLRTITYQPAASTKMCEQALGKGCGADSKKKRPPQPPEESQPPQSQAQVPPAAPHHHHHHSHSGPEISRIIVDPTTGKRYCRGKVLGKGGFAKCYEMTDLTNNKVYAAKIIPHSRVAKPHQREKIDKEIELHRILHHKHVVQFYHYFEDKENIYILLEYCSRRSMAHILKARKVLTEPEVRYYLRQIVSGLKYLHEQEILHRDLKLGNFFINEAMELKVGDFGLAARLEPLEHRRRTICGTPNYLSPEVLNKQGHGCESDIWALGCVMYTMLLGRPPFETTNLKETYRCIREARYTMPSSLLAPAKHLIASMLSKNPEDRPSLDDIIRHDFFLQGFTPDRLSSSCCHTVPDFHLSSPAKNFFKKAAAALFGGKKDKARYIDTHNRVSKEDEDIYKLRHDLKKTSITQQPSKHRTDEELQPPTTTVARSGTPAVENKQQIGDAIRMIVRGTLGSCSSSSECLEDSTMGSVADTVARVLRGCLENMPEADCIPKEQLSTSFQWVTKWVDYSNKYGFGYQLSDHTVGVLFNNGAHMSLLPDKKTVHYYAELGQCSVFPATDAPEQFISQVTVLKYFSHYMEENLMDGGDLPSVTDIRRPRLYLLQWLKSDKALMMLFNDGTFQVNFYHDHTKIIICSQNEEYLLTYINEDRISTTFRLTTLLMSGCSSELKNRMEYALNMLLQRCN

[2] = target: Serine/threonine-protein kinase PLK3 (Homo sapiens, UniProt Q9H4B4); assay: Inhibition human recombinant GST-tagged Plk3 catalytic domain (58 to 340 residues) expressed in baculovirus expression system after 1 hr by FRET-based Z'-Lyte assay
Chain of Serine/threonine-protein kinase PLK3 (Q9H4B4 whole entry, the tested form may be a part): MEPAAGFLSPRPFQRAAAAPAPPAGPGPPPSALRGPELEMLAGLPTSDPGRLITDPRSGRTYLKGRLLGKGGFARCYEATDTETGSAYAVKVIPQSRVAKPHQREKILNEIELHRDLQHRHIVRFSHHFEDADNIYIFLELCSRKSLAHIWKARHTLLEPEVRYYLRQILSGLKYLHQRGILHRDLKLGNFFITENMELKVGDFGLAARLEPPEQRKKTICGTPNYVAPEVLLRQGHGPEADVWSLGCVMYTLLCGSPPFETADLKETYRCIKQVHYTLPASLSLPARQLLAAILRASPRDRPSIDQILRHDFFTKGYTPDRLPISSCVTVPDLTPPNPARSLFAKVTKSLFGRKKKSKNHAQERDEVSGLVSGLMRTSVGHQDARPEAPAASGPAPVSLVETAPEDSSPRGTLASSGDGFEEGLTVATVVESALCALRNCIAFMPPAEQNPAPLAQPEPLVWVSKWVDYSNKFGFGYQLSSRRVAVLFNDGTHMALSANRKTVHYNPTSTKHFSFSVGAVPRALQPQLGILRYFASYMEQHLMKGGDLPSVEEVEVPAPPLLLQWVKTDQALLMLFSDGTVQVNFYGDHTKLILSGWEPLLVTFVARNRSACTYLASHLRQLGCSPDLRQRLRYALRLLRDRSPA

| GI50 (NCI-H1975; NCI-H1975, 72 h) [µM] | GI50 (A549; A549, 72 h) [µM] | GI50 (HeLa) | GI50 (K562; K562, 72 h) [µM] | GI50 (Huh-7; Huh-7, 72 h) [µM] | GI50 (MCF7; MCF7, 72 h) [µM] | IC50 [1] [µM] | IC50 [2] [µM] | GI50 (NCI-H1975) | GI50 (Huh-7) | GI50 (MCF7) | GI50 (A549) | GI50 (K562) | Structure (SMILES) |
| --- | --- | --- | --- | --- | --- | --- | --- | --- | --- | --- | --- | --- | --- |
| 5.29 | 3.39 | 0.317 µM | 0.47 | 1.3 | 0.394 | 0.0102 |  |  |  |  |  |  | CC[C@@H]1C(=O)N(C)c2cnc(Nc3ccc(S(N)(=O)=O)cc3)nc2N1C1CCCC1 |
| 1.61 | 0.477 | 0.451 µM | 0.412 | 0.225 | 0.459 | 0.0199 |  |  |  |  |  |  | CCCCNS(=O)(=O)c1ccc(Nc2ncc3c(n2)N(C2CCCC2)[C@H](CC)C(=O)N3C)cc1 |
| 1.37 | 2.2 | 0.768 µM | 0.705 | 0.842 | 1 | 0.0086 |  |  |  |  |  |  | CC[C@@H]1C(=O)N(C)c2cnc(-n3ccc4cc(C(=O)NC)ccc43)nc2N1C1CCCC1 |
| 1.04 | 0.75 | 0.561 µM | 0.705 | 0.411 | 0.403 | 0.0218 |  |  |  |  |  |  | CC[C@@H]1C(=O)N(C)c2cnc(Nc3ccc(S(=O)(=O)NCC(C)C)cc3)nc2N1C1CCCC1 |
| 2.14 | 0.437 | 0.357 µM | 0.331 | 0.262 | 0.363 | 0.00816 |  |  |  |  |  |  | CC[C@@H]1C(=O)N(C)c2cnc(Nc3ccc(S(=O)(=O)NCCCO)cc3)nc2N1C1CCCC1 |
| 15 | 31.6 | 5.31 µM | 7.3 | 8.52 | 8.35 | 0.311 |  |  |  |  |  |  | CCC1C(=O)N(C)c2cnc(Nc3ccc(S(=O)(=O)NCC(C)C)cc3)nc2N1c1ccn(C)n1 (racemic) |
| 0.856 | 0.67 | 0.247 µM | 0.414 | 0.259 | 0.795 | 0.00706 | > 20 |  |  |  |  |  | CC[C@@H]1C(=O)N(C)c2cnc(-n3ccc4cc(C(=O)NC5CCCC5)ccc43)nc2N1C1CCCC1 |
|  | 39.5 | 27.4 µM | 31.3 |  |  | 0.0909 |  | inactive | inactive | inactive |  |  | CCC1C(=O)N(C)c2cnc(-n3ccc4cc(C(=O)NC5CCCC5)ccc43)nc2N1c1ccn(C)n1 (racemic) |
| 2.1 | 0.563 | 0.459 µM | 0.546 | 0.278 | 0.344 | 0.00786 |  |  |  |  |  |  | CC[C@@H]1C(=O)N(C)c2cnc(Nc3ccc(S(=O)(=O)NCCO)cc3)nc2N1C1CCCC1 |
| 28.3 | 57.5 | 33.9 µM | 6.91 | 4.69 | 17.2 |  | > 20 |  |  |  |  |  | CC[C@@H]1C(=O)N(C)c2cnc(-n3ccc4ccccc43)nc2N1C1CCCC1 |
| 12.2 | 22 | 4.35 µM | 8.91 | 6.74 | 8.42 | 0.124 | > 10 |  |  |  |  |  | CCC1C(=O)N(C)c2cnc(-n3ccc4cc(C(=O)NC(C)C)ccc43)nc2N1c1ccn(C)n1 (racemic) |
|  |  | 12.6 µM |  |  | 36.6 | 0.121 |  | inactive | inactive |  | inactive | inactive | CCC1C(=O)N(C)c2cnc(Nc3ccc(S(N)(=O)=O)cc3)nc2N1c1ccn(C)n1 (racemic) |
| 35.7 | 43.1 | 6.33 µM | 13.3 | 13.2 | 35.4 | 0.218 | > 10 |  |  |  |  |  | CCC1C(=O)N(C)c2cnc(-n3ccc4cc(C(=O)NC)ccc43)nc2N1c1ccn(C)n1 (racemic) |
| 4.12 | 10.6 | 4.32 µM | 4.24 | 3.75 | 5.78 | 0.191 |  |  |  |  |  |  | CCCCNS(=O)(=O)c1ccc(Nc2ncc3c(n2)N(c2ccn(C)n2)C(CC)C(=O)N3C)cc1 (racemic) |
| 18.8 | 12.6 | 2.2 µM | 2.89 | 11.9 | 3.75 | 0.0715 |  |  |  |  |  |  | CCC1C(=O)N(C)c2cnc(Nc3ccc(S(=O)(=O)NC)cc3)nc2N1c1ccn(C)n1 (racemic) |
| 11 |  | 6.16 µM | 8.27 | 7.28 | 6.42 | 0.207 | > 10 |  |  |  | inactive |  | CCCNC(=O)c1ccc2c(ccn2-c2ncc3c(n2)N(c2ccn(C)n2)C(CC)C(=O)N3C)c1 (racemic) |
|  | 1.73 | 3.28 µM | 0.638 |  | 0.953 | 0.0186 |  | inactive | inactive |  |  |  | CC[C@@H]1C(=O)N(C)c2cnc(-n3ccc4cc(C(=O)NCC(C)C)ccc43)nc2N1C1CCCC1 |

| GI50 (NCI-H1975; NCI-H1975, 72 h) [µM] | GI50 (A549; A549, 72 h) [µM] | GI50 (HeLa) | GI50 (K562; K562, 72 h) [µM] | GI50 (Huh-7; Huh-7, 72 h) [µM] | GI50 (MCF7; MCF7, 72 h) [µM] | IC50 [1] [µM] | IC50 [2] [µM] | GI50 (NCI-H1975) | GI50 (Huh-7) | GI50 (MCF7) | GI50 (A549) | GI50 (K562) | Structure (SMILES) |
| --- | --- | --- | --- | --- | --- | --- | --- | --- | --- | --- | --- | --- | --- |
| 3.38 | 4.35 | 0.674 µM | 1.85 | 3.09 | 1.83 | 0.0285 |  |  |  |  |  |  | CC[C@@H]1C(=O)N(C)c2cnc(-n3ccc4cc(C(N)=O)ccc43)nc2N1C1CCCC1 |
| 10.2 | 19.2 | 4.97 µM | 5.6 | 5.07 | 4.81 | 0.159 | > 10 |  |  |  |  |  | CCC1C(=O)N(C)c2cnc(-n3ccc4cc(C(=O)NCC(C)C)ccc43)nc2N1c1ccn(C)n1 (racemic) |
|  | 39.5 | 27.4 µM | 31.3 |  |  | 0.384 | > 10 | inactive | inactive | inactive |  |  | CCC1C(=O)N(C)c2cnc(-n3ccc4cc(C(N)=O)ccc43)nc2N1c1ccn(C)n1 (racemic) |
| 2.1 | 0.563 | 0.459 µM | 0.548 | 0.278 | 0.344 | 0.0178 |  |  |  |  |  |  | CCCNS(=O)(=O)c1ccc(Nc2ncc3c(n2)N(C2CCCC2)[C@H](CC)C(=O)N3C)cc1 |
| 12 | 37.3 | 4.26 µM | 14.1 | 8.67 | 8.99 | 0.159 | > 10 |  |  |  |  |  | CCCCNC(=O)c1ccc2c(ccn2-c2ncc3c(n2)N(c2ccn(C)n2)C(CC)C(=O)N3C)c1 (racemic) |
| 0.786 | 1.64 | 0.238 µM | 0.395 | 0.689 | 0.592 | 0.0114 |  |  |  |  |  |  | CCCNC(=O)c1ccc2c(ccn2-c2ncc3c(n2)N(C2CCCC2)[C@H](CC)C(=O)N3C)c1 |
| 46.5 |  | inactive | 21.2 | 16 |  | 0.969 | > 20 |  |  | inactive | inactive |  | CC[C@@H]1C(=O)N(C)c2cnc(-n3ccc4cc(F)ccc43)nc2N1C1CCCC1 |
| 0.99 | 1.16 | 0.346 µM | 0.673 | 0.683 | 0.634 | 0.0165 |  |  |  |  |  |  | CCCCNC(=O)c1ccc2c(ccn2-c2ncc3c(n2)N(C2CCCC2)[C@H](CC)C(=O)N3C)c1 |
| 21.7 | 15 | 2.67 µM | 2.26 | 8.88 | 3 | 0.19 |  |  |  |  |  |  | CCCNS(=O)(=O)c1ccc(Nc2ncc3c(n2)N(c2ccn(C)n2)C(CC)C(=O)N3C)cc1 (racemic) |
| 1.84 | 1.78 | 0.292 µM | 0.786 | 1.66 | 1.67 | 0.0174 |  |  |  |  |  |  | CC[C@@H]1C(=O)N(C)c2cnc(-n3ccc4cc(C(=O)NC(C)C)ccc43)nc2N1C1CCCC1 |
| 0.882 | 1.12 | 0.418 µM | 0.428 | 0.596 | 0.784 | 0.00488 |  |  |  |  |  |  | CCNC(=O)c1ccc2c(ccn2-c2ncc3c(n2)N(C2CCCC2)[C@H](CC)C(=O)N3C)c1 |
| 25.8 | 48.9 | 23.7 µM | 13.4 |  | 21.6 | 0.192 |  |  | inactive |  |  |  | CCC1C(=O)N(C)c2cnc(Nc3ccc(S(=O)(=O)NCCCO)cc3)nc2N1c1ccn(C)n1 (racemic) |
| 6 | 4.15 | 5.14 µM | 4.18 | 2.79 | 5.43 | 0.0544 |  |  |  |  |  |  | CC[C@@H]1C(=O)N(C)c2cnc(Nc3ccc(S(=O)(=O)Nc4ccccc4)cc3)nc2N1C1CCCC1 |
| 1.71 | 1.15 | 0.609 µM | 0.872 | 0.389 | 0.688 | 0.0239 |  |  |  |  |  |  | CC[C@@H]1C(=O)N(C)c2cnc(Nc3ccc(S(=O)(=O)NC4CCCC4)cc3)nc2N1C1CCCC1 |
|  |  | inactive |  |  |  | 0.478 |  | inactive | inactive | inactive | inactive | inactive | CCC1C(=O)N(C)c2cnc(Nc3ccc(S(=O)(=O)NCCO)cc3)nc2N1c1ccn(C)n1 (racemic) |
| 1.41 | 0.183 | 0.148 µM | 0.222 | 0.099 | 0.151 | 0.0034 |  |  |  |  |  |  | CC[C@@H]1C(=O)N(C)c2cnc(Nc3ccc(S(=O)(=O)NC)cc3)nc2N1C1CCCC1 |
| 0.23 | 0.057 | 0.034 µM | 0.068 | 0.028 | 0.067 |  |  |  |  |  |  |  | CC[C@@H]1C(=O)N(C)c2cnc(Nc3ccc(C(=O)NC4CCN(C)CC4)cc3OC)nc2N1C1CCCC1 [BI-2536] |
